Measured values reported in patent US20180125993A1 (BEIJING COTIMES BIOTECH COMPANY LIMITED, priority 2014, published 2018).
Marks after values point to notes of the source that are not given here.

How the values were obtained:
[1] = tested on: Capan-1; experiment: In vitro cytotoxic sensitivity of CTB006; format: cell-based, human; conditions: Capan-1, Pancreatic cancer
[2] = tested on: MDA-MB-361; experiment: In vitro cytotoxic sensitivity of CTB006; format: cell-based, human; conditions: MDA-MB-361, Breast cancer
[3] = tested on: OVCA3; experiment: In vitro cytotoxic sensitivity of CTB006; format: cell-based, human; conditions: OVCA3, Ovarian cancer
[4] = tested on: Huh-7; experiment: In vitro cytotoxic sensitivity of CTB006; format: cell-based, human; conditions: Huh-7, Liver cancer
[5] = tested on: ZR-75-30; experiment: In vitro cytotoxic sensitivity of CTB006; format: cell-based, human; conditions: ZR-75-30, Breast cancer
[6] = tested on: A427; experiment: In vitro cytotoxic sensitivity of CTB006; format: cell-based, human; conditions: A427, Lung cancer
[7] = tested on: HT-29; experiment: In vitro cytotoxic sensitivity of CTB006; format: cell-based, human; conditions: HT-29, Colorectal cancer
[8] = tested on: colon cancer, CS146, 2#; experiment: Patients primary tumor tissue subcutaneous model (Day 30 after treatment); format: in vivo, nude mice; conditions: HuCTB006 10 mg/kg i.v. QW × 6w alone
Text: Fresh primary tumor tissues from patients were implanted in NOD/SCID mice's flank, which developed into a primary tumor, which was then transferred to the nude mice's flank to allow the tumor reaching an exponential growth phase, and the tumor was named 1# tumor, and so on. When the tumor volume and number reached passage requirements, they were implanted into the right flank of nude mice. When the tumors' average volumes reached 100-200 mm^3, the mice were grouped.
The bodyweight and major/minor axis of mice were measured twice a week, and Tumor Growth Inhibition (TGI) and tumor volume were calculated same as in 5.1.5. In addition, to evaluate the synergetic effect of drug combination in tumor growth, Jin Zhengjun Q value judgment method was used with the follow formula: Q=Ea+b/(Ea+Eb−Ea×Eb). Ea+b is the inhibition ratio of drug combination, Ea and Eb are the inhibition ratio of each of drug treatment when it is administered alone. […] The animals were monitored, and when the experiments were concluded, mice were sacrificed and tumors were extracted and weighted. All the animal experiments confer to the regulations of animal's welfare and the management of experimental animal usage.
Tumor volumes were represented with average±standard error. Data analysis was done using Spss16.0, One-Way ANOVA, LSD (homogeneity of variance) or Dunnett T3 (non-homogeneity of variance). […]

[9] = tested on: H460; experiment: In vitro cytotoxic sensitivity of CTB006; format: cell-based, human; conditions: H460, Lung cancer
[10] = tested on: WI-38, HFL-1, HUV-EC-C, human hepatic differentiated cells; experiment: Cytotoxicity of HuCTB006 on human normal tissue cell lines; format: cell-based; conditions: 24 hours after the treatments
Text: Several human normal tissue cell lines, including human lung epithelial fibroblasts WI-38, human embryonic lung fibroblasts HFL-1, human umbilical vein epithelial cells HUV-EC-C, and human hepatic differentiated cells, which were derived from liver genitor cells (obtained from Peking University Third Hospital). […] The culture medium for WI-38 was MEM, and the culture medium for HFL-1 and HUV-EC-C was F-12K.

[11] = tested on: MKN28; experiment: In vitro cytotoxic sensitivity of CTB006; format: cell-based, human; conditions: MKN28, Stomach cancer
[12] = tested on: BGC823; experiment: In vitro cytotoxic sensitivity of CTB006; format: cell-based, human; conditions: BGC823, Stomach cancer
[13] = tested on: Raji; experiment: In vitro cytotoxic sensitivity of CTB006; format: cell-based, human; conditions: B cell lymphoma
[14] = tested on: HT1080; experiment: In vitro cytotoxic sensitivity of CTB006; format: cell-based, human; conditions: HT1080, Fibrosarcoma
[15] = tested on: H2122; experiment: Human lung cancer H2122 subcutaneous model (Day 38 after treatment); conditions: for Tumor regression: treatment groups
Description: Tumor cells (i.e., MIA-PaCa-2, WiDr, H2122, colo205) were inoculated in nude mice's flank at 5×10^6 cells per mouse. The mice were grouped when the average volume of tumors reached about 100˜200 mm^3. “QW”=weekly dose. “Q3d”=dosed every third day. “BiW”=biweekly.
The bodyweight and major/minor axis of the mice were measured twice a week, and the tumor volumes were calculated using the formula: Tumor volume=1/2×major axis×minor axis. […] “T” represents average tumor volume of the experimental group (cm^3), and “C” represents average tumor volume of the control group (cm^3). The animals were monitored at all times. The bodyweight and major/minor axis or mice were measured twice a week. When the experiments were concluded, mice were sacrificed and tumors were extracted and weighted.
Tumor volumes were represented with average±standard error. Data analysis was done using Spss16.0, One-Way ANOVA, LSD (homogeneity of variance) or Dunnett T3 (non-homogeneity of variance). […] P<0.05 represents significant difference.

[16] = tested on: SW620; experiment: In vitro cytotoxic sensitivity of CTB006; format: cell-based, human; conditions: SW620, Colorectal cancer
[17] = tested on: NUGC3; experiment: In vitro cytotoxic sensitivity of CTB006; format: cell-based, human; conditions: NUGC3, Stomach cancer
[18] = tested on: SKOV3; experiment: In vitro cytotoxic sensitivity of CTB006; format: cell-based, human; conditions: SKOV3, Ovarian cancer
[19] = tested on: 7901; experiment: In vitro cytotoxic sensitivity of CTB006; format: cell-based, human; conditions: 7901, Stomach cancer
[20] = HuCTB006 0.2 mg/kg i.v. QW × 6W
[21] = HuCTB006 0.2 mg/kg i.v. QW × 6W, 0.2 mg/kg
[22] = HuCTB006 0.2 mg/kg i.v. QW × 6W, listed as HUCTB006, 0.2 mg/kg
[23] = HuCTB006 0.6 mg/kg i.v. QW × 6W
[24] = HuCTB006 0.6 mg/kg i.v. QW × 6W, 0.6 mg/kg
[25] = HuCTB006 0.6 mg/kg i.v. QW × 6W, listed as HUCTB006, 0.6 mg/kg
[26] = HuCTB006 1.8 mg/kg i.v. QW × 6W
[27] = HuCTB006 1.8 mg/kg i.v. QW × 6W, 1.8 mg/kg
[28] = HuCTB006 1.8 mg/kg i.v. QW × 6W, listed as HUCTB006, 1.8 mg/kg
[29] = HuCTB006 5.4 mg/kg i.v. QW × 6W
[30] = HuCTB006 5.4 mg/kg i.v. QW × 6W, 5.4 mg/kg
[31] = HuCTB006 5.4 mg/kg i.v. QW × 6W, listed as HUCTB006, 5.4 mg/kg
[32] = repeated experiment, HuCTB006 0.2 mg/kg
[33] = repeated experiment, HuCTB006 0.6 mg/kg
[34] = repeated experiment, HuCTB006 1.8 mg/kg
[35] = repeated experiment, HuCTB006 5.4 mg/kg

## HuCTB006: Monospecific humanized chimeric monoclonal antibody directed to TRAIL-R2 receptor; heavy chain SEQ ID NO: 14, light chain SEQ ID NO: 12
[1]
  In vitro cytotoxic sensitivity of CTB006: Non-responder
[2]
  In vitro cytotoxic sensitivity of CTB006: Non-responder
[3]
  In vitro cytotoxic sensitivity of CTB006: Non-responder
[4]
  In vitro cytotoxic sensitivity of CTB006: Non-responder
[5]
  In vitro cytotoxic sensitivity of CTB006: Non-responder
[6]
  In vitro cytotoxic sensitivity of CTB006: Non-responder
[7]
  In vitro cytotoxic sensitivity of CTB006: Non-responder
[8]
  inhibitory effect on the growth of CS146: did not
[9]
  In vitro cytotoxic sensitivity of CTB006: Partial-responder
[10]
  cytotoxicity on human normal tissue cells: no cytotoxicity
[11]
  In vitro cytotoxic sensitivity of CTB006: Non-responder
[12]
  In vitro cytotoxic sensitivity of CTB006: Partial-responder
[13]
  In vitro cytotoxic sensitivity of CTB006: Non-responder
[14]
  In vitro cytotoxic sensitivity of CTB006: Non-responder
[15]; [20]
  T/C % (Calculated using tumor volumes): 92.13%
  Time of tumor volume changed significantly: 8
  Tumor Volume Mean ± SEM: 1.85 ± 0.15 cm^3
  Tumor weight Mean ± SEM: 1.54 ± 0.09 g
[15]; [21]
  TGI (Calculated using tumor volumes): 11.56%
  TGI (Calculated using tumor weight): 6.45%
[15]; [22]
  TGI (Calculated using tumor volumes): 11.56%
  TGI (Calculated using tumor weight): 6.45%^5
[15]; [23]
  T/C % (Calculated using tumor volumes): 50.75%
  Tumor Volume Mean ± SEM: 1.02 ± 0.31 cm^3
  Tumor weight Mean ± SEM: 0.89 ± 0.29 g
[15]; [24]
  TGI (Calculated using tumor volumes): 51.06%
  TGI (Calculated using tumor weight): 45.66%
[15]; [25]
  TGI (Calculated using tumor volumes): 51.06%^3
  TGI (Calculated using tumor weight): 45.66%^4
[15]; [26]
  T/C % (Calculated using tumor volumes): 6.46%
  Tumor Volume Mean ± SEM: 0.16 ± 0.16 cm^3
  Tumor weight Mean ± SEM: 0.12 ± 0.12 g
[15]; [27]
  TGI (Calculated using tumor volumes): 92.08%
  TGI (Calculated using tumor weight): 92.48%
[15]; [28]
  TGI (Calculated using tumor volumes): 92.08%**^2
  TGI (Calculated using tumor weight): 92.48%*
[15]; [29]
  T/C % (Calculated using tumor volumes): 5.54%
  Tumor Volume Mean ± SEM: 0.18 ± 0.18 cm^3
  Tumor weight Mean ± SEM: 0.19 ± 0.18 g
[15]; [30]
  TGI (Calculated using tumor volumes): 91.23%
  TGI (Calculated using tumor weight): 8.62%
[15]; [31]
  TGI (Calculated using tumor volumes): 91.23%**
  TGI (Calculated using tumor weight): 88.62%*^1
[15]; Taxol group, HuCTB006 0.2 mg/kg group
  Bodyweights: decreased, but were maintained at an acceptable level
[15]; first experiment
  Tumor regression: some animals of HuCTB006 treatment groups showed tumor regression
[15]; repeated experiment
  Tumor regression: some animals of CTB006 treatment groups showed tumor regression
[15]; [32]
  TGI (Calculated using tumor volume): 35.26%
  TGI (Calculated using tumor weight): 32.46%
[15]; [33]
  TGI (Calculated using tumor volume): 67.66%
  TGI (Calculated using tumor weight): 65.94%
[15]; [34]
  TGI (Calculated using tumor volume): 60.12%
  TGI (Calculated using tumor weight): 64.21%
[15]; [35]
  TGI (Calculated using tumor volume): 91.69%
  TGI (Calculated using tumor weight): 92.25%
[16]
  In vitro cytotoxic sensitivity of CTB006: Non-responder
[17]
  In vitro cytotoxic sensitivity of CTB006: Partial-responder
[18]
  In vitro cytotoxic sensitivity of CTB006: Non-responder
[19]
  In vitro cytotoxic sensitivity of CTB006: Non-responder
